According to patent US9850293B2, “Targeting trastuzumab-resistant HER2+ breast cancer with a HER3-targeting nanoparticle” (priority 2014, dated 2017):

Columns and labels:
[1] = Off-target toxicity in treated mice (weight, heart, liver)
Method: Relative cell survival (as % of untreated cells) on day 3 of treatment. (+Her), pre-incubation of MDA-MB-435 cells with receptor-blocking ligand (recombinant heregulin) before receiving HerDox. N=3. […] Tissues were harvested from independently injected mice euthanized at indicated time points after injection and fluorescence intensity/tissue acquired using a multimode imager. […] Bar, about 4 μm. […] Day 0=3 days before tail vein injections (mice received daily injections for 7 days). […] Day 0=3 days before tail vein injections (mice received daily injections for 7 days). […] Micrographs (20× magnification) in (E) also show representative H&E stained specimens of myocardia and immunofluorescent specimens of livers from treated mice. Green fluorescence in nuclei indicates apoptosis (positive TUNEL stain).

[2] = test system: MDA-MB-435 cells; assay: Intracellular translocation of HerDox and Dox (microscopy); format: cell-based, human
Method: Live (unfixed) cells were imaged by brightfield and fluorescence microscopy.
Live (unfixed) cells were imaged by DIC and confocal fluorescence microscopy.
FIG. 15 illustrates HerDox trafficking in breast cancer cells. Cells incubated with HerDox at 37° C. were fixed at the indicated time points and processed for immunofluorescence using an antibody against HerPBK10. Images were captured using confocal microscopy under fluorescence and brightfield. n, nucleus; Bar, ˜8 microns.

[3] = test system: HER2+ tumors (MDA-MB-435); assay: In vivo tumor toxicity (tumor growth); design: species or system mouse
[4] = test system: JIMT-1 cell line; assay: Tumor cell killing in culture, pre-existing resistance; format: cell-based, human; details: broad concentration range
Method: N=3. *, p<0.05 compared to parental. […] N=3. […] Treatments were compared to mock (saline)-treatment. […] N=3. *, p<0.05 compared to parental. […] N=3.
(§1) The efficacy of HerDox was also examined on a cell line with pre-existing resistance.
(§2) The contribution of HER3 to targeted toxicity was evaluated by assessing whether pre-adsorbing HerDox with a peptide comprising the ligand-binding domain of HER3 blocked cytotoxicity.

[5] = test system: MDA-MB-231 (HER2−); assay: Targeted toxicity, cell survival by MTT assay; format: cell-based, human; details: 0.5 μM with respect to Dox; HerPBK10 0.1 μM; day 3
Method: (§3) FIG. 7 illustrates targeted toxicity. […] Cell titer was determined by metabolic (i.e. MTT) assay. FIG. 7 upper panel illustrates the effect of HerDox on MDA-MB-231 (HER2−) and MDA-MB-435 (HER2+) cell survival. Relative surviving cell numbers are represented as a % of corresponding untreated cells. […] Relative survival (as % of untreated cells) is shown for Day 3 of treatment.
(§4) N=3. […] Bar, about 4 μm. […] (E) compares HerDox and Dox on off-target tissue. […] Green fluorescence in nuclei indicates apoptosis (positive TUNEL stain).
(§5) By three days, HerDox reduced HER2+ cell numbers by over 75% whereas HER2− cell survival was unaffected (FIG. 7). […] These findings emphasize the importance of targeting by showing that the untargeted drug affects nontarget (i.e. HER2−) cells. […] To test receptor targeting, the inventors used free heregulin ligand (Her or eHRG) as a competitive inhibitor. […] As a final in vitro challenge, the inventors tested whether HerDox induces toxicity specifically to HER2+ cells in a mixed culture of HER2+ and HER2− breast cancer cells. To do this, the inventors produced a HER2− cell line tagged with green fluorescent protein (GFP) for cell identification in the mixed culture (FIG. 9-A). […] Altogether, these findings indicate that HerDox has the capacity to preferentially target toxicity to HER2+ cells. […] In serum-containing media, no such loss from HerDox is detectable. […] Co-migration of HerPBK10 bands further verified that the conjugates remained intact in the cell media.

[6] = test system: MDA-MB-435 (HER2+); assay: Targeted toxicity, cell survival by MTT assay; format: cell-based, human; details: Dox 0.5 μM; HerPBK10 0.1 μM; day 3
Method: as §3
FIG. 8 illustrates receptor specificity. MDA-MB-435 (HER2+) cells were incubated with free ligand (eHRG) at 10× molar excess of HerDox for one hour at 4° C. Media was aspirated to remove free eHRG and fresh media containing HerDox (0.5 μM) was added to cells. Cell survival was measured by MTT assay and represented as a % of relative untreated cell numbers.
as §4, §5

[7] = test system: JIMT-1 tumors; assay: Trastuzumab-resistant tumor growth in vivo; design: species or system mouse; details: 0.004 mg Dox/kg/injection, twice-weekly IV
Method: (§6) Tumor volumes were measured by calipers. Day 0 corresponds to first day of treatment. N=10 tumors per treatment.
as §6, §1, §2

[8] = test system: HER2+ tumors; assay: HerDox and Dox biodistribution (Dox fluorescence imaging); details: tissues harvested ~3 h after injection
Excerpt: FIG. 11 (A) depicts imaging of live mice after IV delivery of HerDox. Tumors are indicated by arrows.

[9] = T-DM1; untargeted Dox in patients; cited from earlier work
[10] = molecular target: TSPO (Homo sapiens, UniProt P30536); assay: S2Ga binding to recombinant TSPO (ultrafiltration, spectra); details: 1 μM
Sequence of TSPO (P30536 whole entry): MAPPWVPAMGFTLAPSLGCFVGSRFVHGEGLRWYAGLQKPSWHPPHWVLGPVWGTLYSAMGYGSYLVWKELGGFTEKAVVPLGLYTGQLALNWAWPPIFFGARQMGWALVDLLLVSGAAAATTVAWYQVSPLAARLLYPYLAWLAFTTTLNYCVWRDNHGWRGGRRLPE
Method: (A) illustrates that S2Ga interacts with TSPO. […] Retentates were evaluated for the presence of protein-bound corrole by measuring the absorbance and fluorescence spectra. Where indicated, PK11195 was used as a competitive inhibitor for the porphyrin binding site on TSPO. (B) further illustrates that S2Ga interacts with TSPO. […] Retentates were evaluated for the presence of protein-bound corrole by measuring the absorbance and fluorescence spectra. Where indicated, PK11195 was used as a competitive inhibitor for the porphyrin binding site on TSPO. […] MDA-MB-435 cells were transfected with a plasmid expressing exogenous TSPO 24 hours before cells were treated with HerGa and examined for HerGa-mediated mitochondrial disruption, evidenced by reduced red fluorescent dye accumulation in mitochondria and accumulated green fluorescence in the cytoplasm.
TSPO translocates porphyrins and other metabolites into mitochondria for processing as well as interacts with components of the mitochondrial permeability transition pore complex, and is critical for cellular homeostasis, as knock-outs of TSPO are embryonic lethal in mice.

[11] = test system: human HER2− tumor cells; assay: HerMn toxicity, crystal violet survival; format: cell-based; details: 24 hours
Method: (§7) Each cell line received the indicated concentration of HerMn or S2Mn and was assessed for survival 24 hours later via crystal violet (CV) stain. N=3 per conc, from 3 separate experiments.

[12] = test system: human HER2+ tumor cells; assay: HerMn toxicity, crystal violet survival; format: cell-based; details: 24 hours
Method: as §7

[13] = test system: SOD1
Excerpt: An in vitro assay measuring superoxide production from XOD−/+SOD.

For `COc1cccc2c1C(=O)c1c(O)c3c(c(O)c1C2=O)C[C@@](O)(C(=O)CO)C[C@@H]3O[C@H]1C[C@H](N)[C@H](O)[C@H](C)O1` [Dox, doxorubicin, reference compound], the heart gross appearance ([1]; 25 days following injections) was “slightly enlarged and dilated”, the “myocardium morphology (histochemistry)” value ([1]; 25 days following injections) was “focal degeneration, myofibrillar loss, increased cytosoplasmic vacuolization, and nuclear condensation or dissolution” and the “cardiac function (echocardiograms)” value ([1]; mouse, in vivo) was “modest to marked reductions in stroke volume, cardiac output, and left ventricular internal dimension and volume”. The “liver and heart toxicity” value ([1]; systemic delivery in vivo) was “causing liver tissue and myocardial damage”, the “intracellular location of Dox fluorescence” value ([2]; 0 min of uptake, 0.5 μM) was “already found inside the cell at the nuclear periphery” and the “intranuclear pattern of Dox in live cells” value ([2]; confocal, live cells) was “accumulates in the cell nucleus”. For the same compound, the “effect on tumor growth” value ([3]; 0.004 mg/kg with respect to Dox, daily tail vein injections for 7 days) was “slows tumor growth”, the “dose eliciting tumor growth ablation / tumor cell death” value ([3]; mice, dose of Dox) was “more than 0.04 mg/kg” and the “response of JIMT-1 cells” value [4] was “only partially responsive”. The “effect on HER2− cell survival” value [5] was “reduced both HER2+ and HER2− cells by the same order of magnitude”, the “effect on HER2+ cell survival” value [6] was “reduced both HER2+ and HER2− cells by the same order of magnitude” and the “effect on JIMT-1 tumor growth” value [7] was “only slight”. For the same compound, the fluorescence in kidneys [8] was “detectable fluorescence”, the fluorescence in liver [8] was “detectable fluorescence” and the “fluorescence in other tissues (heart, spleen, lungs, skeletal muscle)” value [8] was “Lower levels of fluorescence were also detectable in the lungs and skeletal muscle”. For the same compound, the fluorescence in tumors [8] was “detectable fluorescence”.

In the case of T-DM1, the therapeutic dose required [9] is given as “about 3.6 mg/kg”.

For sulfonated gallium(III) corrole [S2Ga], the “binding to TSPO with PK11195” value [10] was “competitively inhibited by PK11195” and the “binding to TSPO” value ([10]; ~20 min, room temperature) was “directly binds”.

With “sulfonated manganese(III) corrole [S2Mn]” the “toxicity to HER2− tumor cells” value [11] was “no effect on cell survival” and the “toxicity to HER2+ tumor cells” value [12] was “no effect on cell survival”.

With “sulfonated non-metallated free-base corrole [S2FB]” the “inhibition of SOD1” value [13] was “inhibit SOD activity” and the “reduction of SOD activity” value ([13]; 1 μM) was “about one-third”.
